Reference: patent US8536222B2, “Addition compounds of guanidinoacetic acid” (AlzChem AG, priority 2005, dated 2013)

Columns and labels:
fattened chicken = test: feed for fattened chicken, 42 day fattening period; format: in vivo; settings: 0.2% by weight in air-dried feed
Description: • 2.1 A formulation consisting of 5000 mg guanidinoacetic acid malate and 5000 mg inulin was introduced into a typical formulation of feed pellets as a feed supplement for horses. • 2.2 A formulation consisting of 7000 mg guanidinoacetic acid lactate, 750 mg carnitine tartrate, 100 mg sucrose stearate, 160 mg talcum and 1090 mg fructose was introduced into the basic bulk for dog biscuits. • 2.3 The following formulation was introduced homogenously as a master batch into a commercially canned cat food mixture: 3000 mg guanidinoacetic acid citrate, 3000 mg creatine, 40 mg magnesium stearate, 25 mg carboxymethyl-cellulose and […] lactose. • 2.4 Feed for fattened chicken
In addition the consumption of feed decreased by about 6% compared to previous feeding methods.

[1] = tested on: creatine content in muscles; settings: rats, diets containing about 0.36 g/kg; cited from earlier work
[2] = 1 g in water at 15° C.; cited from earlier work
solubility in water = format: physicochemical; settings: water at 20° C.

Row | dissolves in water (solubility in water) | Compound | decrease of consumption of feed compared to previous feeding methods (fattened chicken) | increase of end weight compared to previous feeding methods without guanidinoacetic acid (fattened chicken) | meat quality (fattened chicken) | nature of the increase in weight (fattened chicken) | increase of creatine content in muscles compared to the comparison group [1] | solubility in water (ml water needed for 1 g) [2]
1 |  | N=C(N)NCC(=O)O.O=C(O)CCCCC1CCSS1 (stereo not shown) [guanidinoacetic acid lipoate] | about 6% | 5% | improved quality | solely by a meat increase |  | 
2 | very poorly | N=C(N)NCC(=O)O [guanidinoacetic acid] |  |  |  |  | 39% | 278 mL
